Data: paper PMC8500670, “A selective WDR5 degrader inhibits acute myeloid leukemia in patient-derived mouse models” (Science translational medicine, 2021)

How the values were obtained:
Assay in all cases: biochemical
Design in all cases: protein methyltransferase inhibition panel, single concentration, duplicate
SUV39H1 = target: T1, SUV39H1 (Homo sapiens, UniProt O43463)
T1 sequence (O43463 1-412): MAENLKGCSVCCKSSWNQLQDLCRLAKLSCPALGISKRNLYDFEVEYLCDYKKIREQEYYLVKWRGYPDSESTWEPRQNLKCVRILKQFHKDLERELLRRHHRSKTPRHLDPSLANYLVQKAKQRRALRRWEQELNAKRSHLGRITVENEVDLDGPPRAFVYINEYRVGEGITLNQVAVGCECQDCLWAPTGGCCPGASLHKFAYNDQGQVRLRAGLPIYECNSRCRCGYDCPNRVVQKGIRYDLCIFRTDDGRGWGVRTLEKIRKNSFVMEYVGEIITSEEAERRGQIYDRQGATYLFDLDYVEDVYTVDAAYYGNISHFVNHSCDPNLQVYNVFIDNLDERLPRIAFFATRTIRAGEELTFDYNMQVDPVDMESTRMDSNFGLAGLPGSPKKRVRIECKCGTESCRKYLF
Method: (§1) We next assessed selectivity of MS67 against 22 protein methyltransferases (table S2) and a broad panel of common drug targets including 45 kinases (table S3) and 44 G protein–coupled receptors (GPCR), ion channels, and transporters (table S4). […] We subsequently determined that MS67 had moderate binding affinity (Ki = 1.0 ± 0.8 μM) to Sigma 2 receptor (fig. S10).

NSD2 = target: T2, NSD2 (Homo sapiens, UniProt O96028)
T2 sequence (O96028 1-1365): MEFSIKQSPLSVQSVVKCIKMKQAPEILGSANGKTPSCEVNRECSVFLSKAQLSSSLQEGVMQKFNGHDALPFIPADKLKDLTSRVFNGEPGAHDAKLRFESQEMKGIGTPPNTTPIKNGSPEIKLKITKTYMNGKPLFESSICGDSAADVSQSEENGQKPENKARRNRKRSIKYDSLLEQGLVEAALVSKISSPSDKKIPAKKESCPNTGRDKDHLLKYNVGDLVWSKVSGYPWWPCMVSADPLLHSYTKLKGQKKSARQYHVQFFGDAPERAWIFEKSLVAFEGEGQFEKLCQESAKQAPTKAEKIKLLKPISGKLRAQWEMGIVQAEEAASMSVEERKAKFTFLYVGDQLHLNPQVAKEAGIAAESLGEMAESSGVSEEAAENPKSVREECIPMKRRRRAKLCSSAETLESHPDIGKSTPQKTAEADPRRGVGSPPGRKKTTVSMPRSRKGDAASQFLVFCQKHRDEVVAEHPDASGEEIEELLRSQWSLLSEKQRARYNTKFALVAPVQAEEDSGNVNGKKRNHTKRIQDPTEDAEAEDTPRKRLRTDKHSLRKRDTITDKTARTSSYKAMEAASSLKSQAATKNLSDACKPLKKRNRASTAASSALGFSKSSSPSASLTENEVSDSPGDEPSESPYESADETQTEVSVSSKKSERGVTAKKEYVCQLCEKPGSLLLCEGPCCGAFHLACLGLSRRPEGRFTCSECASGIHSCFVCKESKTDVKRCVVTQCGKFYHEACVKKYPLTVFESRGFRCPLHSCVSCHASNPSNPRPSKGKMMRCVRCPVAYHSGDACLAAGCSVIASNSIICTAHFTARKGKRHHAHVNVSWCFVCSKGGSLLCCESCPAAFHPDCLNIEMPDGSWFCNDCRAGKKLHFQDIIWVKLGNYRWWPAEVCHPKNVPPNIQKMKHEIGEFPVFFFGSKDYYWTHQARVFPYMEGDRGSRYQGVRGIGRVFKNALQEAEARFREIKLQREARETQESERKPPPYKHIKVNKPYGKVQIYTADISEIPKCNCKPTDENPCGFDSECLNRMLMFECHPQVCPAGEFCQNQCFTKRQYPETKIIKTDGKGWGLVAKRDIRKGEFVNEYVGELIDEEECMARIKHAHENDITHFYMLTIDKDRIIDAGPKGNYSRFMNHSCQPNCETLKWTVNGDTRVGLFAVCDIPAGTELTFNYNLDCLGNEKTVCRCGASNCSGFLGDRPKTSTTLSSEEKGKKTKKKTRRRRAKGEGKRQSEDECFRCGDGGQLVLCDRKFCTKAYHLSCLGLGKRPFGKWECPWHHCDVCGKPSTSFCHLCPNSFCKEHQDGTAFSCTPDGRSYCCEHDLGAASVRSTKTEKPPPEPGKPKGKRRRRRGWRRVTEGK
Method: as §1

PRMT4 = target: T3, PRMT4 (Homo sapiens, UniProt Q86X55)
T3 construct: gene CARM1
T3 sequence (Q86X55 1-608): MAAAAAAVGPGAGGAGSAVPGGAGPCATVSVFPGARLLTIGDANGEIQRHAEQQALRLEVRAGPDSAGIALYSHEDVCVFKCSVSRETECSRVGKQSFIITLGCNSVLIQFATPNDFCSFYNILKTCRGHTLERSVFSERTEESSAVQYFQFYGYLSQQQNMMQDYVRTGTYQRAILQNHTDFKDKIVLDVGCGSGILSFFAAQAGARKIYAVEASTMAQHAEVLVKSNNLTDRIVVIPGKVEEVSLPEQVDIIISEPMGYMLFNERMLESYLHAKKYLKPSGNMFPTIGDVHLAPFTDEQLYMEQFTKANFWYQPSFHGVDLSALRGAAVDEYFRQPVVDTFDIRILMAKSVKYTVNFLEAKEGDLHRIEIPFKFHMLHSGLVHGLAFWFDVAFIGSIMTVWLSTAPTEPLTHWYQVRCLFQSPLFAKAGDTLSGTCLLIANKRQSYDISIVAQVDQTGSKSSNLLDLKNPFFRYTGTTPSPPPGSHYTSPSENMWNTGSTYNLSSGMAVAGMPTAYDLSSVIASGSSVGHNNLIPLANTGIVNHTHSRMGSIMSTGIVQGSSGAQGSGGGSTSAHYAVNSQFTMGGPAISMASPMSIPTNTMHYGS
Method: as §1

Measured: inhibition at 10 µM

Cc1ncsc1-c1ccc([C@H](C)NC(=O)[C@@H]2C[C@@H](O)CN2C(=O)[C@@H](NC(=O)CNC(=O)c2ccc(F)c(-c3ccc(N4C[C@@H](C)N(C)[C@@H](C)C4)c(NC(=O)c4c[nH]c(=O)cc4C(F)(F)F)c3)c2)C(C)(C)C)cc1 [MS67]
< 10%: all assays above
